Assay results as given in publication PMC2071910 (Respiratory Research, 2007).
Read-outs that look alike come from different tables or passages of the source.

Experiments:
glucocorticoid receptor = conditions: in words, compared with des-CIC and BMP; cited from earlier work
[1] = directly after inhalation of CIC 800 μg via MDI; cited from earlier work
[2] = In vitro metabolism in human lung precision-cut tissue slices, HPLC with UV detection; format: in vitro ADME; conditions: for Total amount in human lung tissue slices: Parent compound / Relative drug amount in human lung tissue slices: Parent compound: tissue extract; for Total amount in human lung tissue slices: Parent compound / Relative drug amount in human lung tissue slices: Parent compound / Relative drug amount in medium: Parent compound: mean ± SD n = 9; for Metabolites detected in incubation medium: incubation medium, 2, 6 and 24 h; for Relative drug amount in medium: Parent compound: incubation medium, initial 25 μM; for Share of BDP-related material in tissue / Share of BDP-related material in medium: incubation of BDP 25 μM; for Share of BDP-related material in tissue: lung tissue extract
Method: Lung slices were prepared at Vitron, Inc. (Tucson, AZ, USA) as previously described. In brief, the lungs were inflated with 2 to 4 L of 0.5% agar/Waymouth's medium mixture at 37°C and were stored at 4°C for 30 to 60 min. Each lung was cut into 2 cm thick slabs, placed on dental wax, and tissue cylinders of 8 mm diameter were prepared using a cordless coring tool. 400 μm thick slices were cut from the cylinders using a Brendel-Vitron tissue slicer.
Three lung slices from each donor were floated onto titanium roller inserts, blotted, and loaded horizontally into glass scintillation vials containing 1.7 mL of Waymouth's MB752/1 tissue culture medium fortified with 10% fetal calf serum, 0.35 g/L L-glutamine, 10 mL/L Fungi-Bact, and 84 μg/mL gentamicin sulfate.
Three vials were used per substrate and time point. A stock solution of the substrate was added prior to dispensing the media into vials. The final substrate concentration was 25 μM. The vials were closed with caps that had central 2-mm holes, placed in a Dynamic Organ Culture incubator (Vitron, Inc., Tucson, AZ, USA) at 37°C, and exposed to 95% O2 and 5% CO2. The human tissue slices were incubated for 2, 6, and 24 h, and cellular viability of human lung slices was assessed using separate incubation samples (see assessment of cellular viability). Slices and media from each vial were harvested separately into separate tubes and stored at -80°C. Metabolism samples containing either tissue or media were shipped on dry ice from Vitron, Inc. to ALTANA Pharma AG for analysis.
The volume of medium was measured at the end of the incubation period. Samples of the incubation medium were prepared by mixing 60 μL of medium with 60 μL of solution for precipitation (0.2 M ZnSO4/ACN, 1:1). Following centrifugation for 5 min (1,000 × g Model5414, Eppendorf) at room temperature, the supernatant was assayed by high performance liquid chromatography (HPLC). Tissue samples were homogenized in 1 mL of methanol using ultrasonic treatment (Branson Sonifier 250; Branson Ultrasonics Corporation, Danbury, Conn) and were centrifuged for 5 min (1,000 × g Model5414, Eppendorf) at room temperature. After centrifugation, 333 μL of the supernatant was dried under a gentle stream of nitrogen at 45°C and resuspended in 75 μL of methanol before analysis.
HPLC analysis was performed using a Hewlett-Packard HP1090 liquid chromatograph (Agilent Technologies Deutschland GmbH, Waldbronn, Germany) with an ultraviolet (UV) detector monitoring at 242 nm. Separation was achieved using a Hypersil MOS column (125 × 4 mm, 5 μm) (Thermo Electron Corp., Dreieich, Germany). A water/ethanol gradient system was run from 30 to 90% ethanol in 10 min followed by an isocratic phase (6 min) with 90% ethanol at a flow rate of 0.75 mL/min. 25 μL of the tissue extract or 100 μL of the supernatant of the medium were injected onto the column.

[3] = set-up: method as in PMID 16566061; conditions: 14C-ciclesonide 25 μM, previous study; cited from earlier work
[4] = set-up: method as in earlier work; conditions: cited from earlier work
[5] = cited from earlier work
[6] = after inhalation of 1600 μg BUD via Nebuhaler
[7] = after inhalation of 1 mg BDP via MDI (Aerobec)

For `C[C@]12C=CC(=O)C=C1CC[C@@H]1[C@@H]2[C@@H](O)C[C@@]2(C)[C@H]1C[C@H]1O[C@@H](C3CCCCC3)O[C@]12C(=O)CO` [des-CIC, desisobutyryl-ciclesonide], the “Affinity to the glucocorticoid receptor” value (glucocorticoid receptor) is listed as “high affinity”, the “Amount detected in mouth rinsing solutions” value [1] is listed as “Only traces” and the “Relative percentage of des-CIC at the end of the incubation period” value ([2]; incubation of CIC 25 μM, 24 h, present study) is listed as 32%. For the same compound, the “Relative percentage of des-CIC at the end of the incubation period” value [3] was 29%.
With `CCC(=O)OCC(=O)[C@@]1(OC(=O)CC)[C@@H](C)C[C@H]2[C@@H]3CCC4=CC(=O)C=C[C@]4(C)[C@@]3(Cl)[C@@H](O)C[C@@]21C` [Beclomethasone dipropionate, beclomethasone dipropionate] the “Total amount in human lung tissue slices: Parent compound” value (from here on “Total amount”) ([2]; 2 h, 25 μM) was 2.19 ± 0.83 nmol/vial and the “Total amount” value ([2]; 6 h, 25 μM) was 0.72 ± 0.46 nmol/vial.
In the case of `CCC(=O)O[C@]1(C(=O)SCF)[C@H](C)C[C@H]2[C@@H]3C[C@H](F)C4=CC(=O)C=C[C@]4(C)[C@@]3(F)[C@@H](O)C[C@@]21C` [Fluticasone propionate, fluticasone propionate], the “Affinity to the glucocorticoid receptor” value (glucocorticoid receptor) is given as “higher”, the logD ([4]; pH 7.4) is given as 3.7 and the “Metabolites detected in incubation medium” value ([2]; 25 μM, listed as FP) is given as “no metabolites were detected”. For the same compound, the “Metabolites detected in tissue extract / metabolic stability” value ([2]; tissue extract, 2, 6 and 24 h, 25 μM) was “no metabolites were detected”, the “Relative drug amount in human lung tissue slices: Parent compound” value ([2]; 2 h, 25 μM) was 100 ± 0.0 % of total UV areas and the “Total amount” value ([2]; 2 h, 25 μM) was 8.42 ± 1.26 nmol/vial. For the same compound, the “Relative drug amount in human lung tissue slices: Parent compound” value ([2]; 6 h, 25 μM) was 100 ± 0.0 % of total UV areas, the “Total amount” value ([2]; 6 h, 25 μM) was 8.62 ± 2.20 nmol/vial and the “Relative drug amount in human lung tissue slices: Parent compound” value ([2]; 24 h, 25 μM) was 100 ± 0.0 % of total UV areas. For the same compound, the “Total amount” value ([2]; 24 h, 25 μM) was 9.51 ± 2.22 nmol/vial, the “Concentration in central lung tissue” value ([5]; after single inhalation of FP, in a few patients) was “more than 20 ng/g” and the “Mean concentration in serum” value ([5]; after single inhalation of FP, same time as lung tissue sample) was “approximately 0.02 ng/mL”.
In the case of `CC(C)C(=O)OCC(=O)[C@@]12O[C@H](C3CCCCC3)O[C@@H]1C[C@H]1[C@@H]3CCC4=CC(=O)C=C[C@]4(C)[C@H]3[C@@H](O)C[C@@]12C` [Ciclesonide, ciclesonide], the logD [4] is listed as 6.1, the “Relative drug amount in medium: Parent compound” value (shortened to “Relative drug amount in medium”) ([2]; 2 h) is listed as 94.9 ± 1.3 % of total UV areas and the “Relative drug amount in medium” value ([2]; 6 h) is listed as 83.2 ± 5.5 % of total UV areas. The “Relative drug amount in medium” value ([2]; 24 h) was 37.4 ± 7.8 % of total UV areas, the “Relative drug amount in medium” value ([2]; 24 h, listed as CIC) was 37 % of total UV areas and the “Relative drug amount in human lung tissue slices: Parent compound” value ([2]; 2 h, 25 μM) was 85.0 ± 3.4 % of total UV areas. For the same compound, the “Total amount” value ([2]; 2 h, 25 μM) was 6.46 ± 0.92 nmol/vial, the “Relative drug amount in human lung tissue slices: Parent compound” value ([2]; 6 h, 25 μM) was 73.5 ± 4.7 % of total UV areas and the “Total amount” value ([2]; 6 h, 25 μM) was 8.86 ± 1.68 nmol/vial. For the same compound, the “Relative drug amount in human lung tissue slices: Parent compound” value ([2]; 24 h, 25 μM) was 40.0 ± 7.6 % of total UV areas and the “Total amount” value ([2]; 24 h, 25 μM) was 9.53 ± 1.70 nmol/vial.
In the case of `CCCC1O[C@@H]2C[C@H]3[C@@H]4CCC5=CC(=O)C=C[C@]5(C)[C@H]4[C@@H](O)C[C@]3(C)[C@]2(C(=O)CO)O1` (some centres unmarked) [Budesonide, budesonide], the “Affinity to the glucocorticoid receptor” value (glucocorticoid receptor) is given as “slightly lower”, the “Metabolites detected in incubation medium” value ([2]; 25 μM, listed as BUD) is given as “no metabolites were detected” and the “Relative drug amount in human lung tissue slices: Parent compound” value ([2]; 2 h, 25 μM) is given as 72.2 ± 10.8 % of total UV areas. The “Total amount” value ([2]; 2 h, 25 μM) was 7.32 ± 0.99 nmol/vial, the “Relative drug amount in human lung tissue slices: Parent compound” value ([2]; 6 h, 25 μM) was 64.9 ± 12.0 % of total UV areas and the “Total amount” value ([2]; 6 h, 25 μM) was 8.41 ± 2.15 nmol/vial. For the same compound, the “Relative drug amount in human lung tissue slices: Parent compound” value ([2]; 24 h, 25 μM) was 53.6 ± 11.5 % of total UV areas, the “Total amount” value ([2]; 24 h, 25 μM) was 9.04 ± 1.14 nmol/vial and the “Mean concentration in blood plasma” value [5, 6] was 0.63 nmol/kg. The “Mean concentration in lung tissue obtained from resections” value [5, 6] was 5.5 nmol/kg.
With `C[C@H]1C[C@H]2[C@@H]3CCC4=CC(=O)C=C[C@]4(C)[C@@]3(Cl)[C@@H](O)C[C@]2(C)[C@@]1(O)C(=O)CO` [BOH, beclomethasone] the “Share of BDP-related material in tissue” value ([2]; 24 h) was 64.9% and the “Share of BDP-related material in medium” value ([2]; 24 h) was 91.6%.
In the case of `CCC(=O)O[C@]1(C(=O)CO)[C@@H](C)C[C@H]2[C@@H]3CCC4=CC(=O)C=C[C@]4(C)[C@@]3(Cl)[C@@H](O)C[C@@]21C` [BMP, beclomethasone-17-monopropionate], the “Share of BDP-related material in tissue” value ([2]; 24 h) was 26.6%, the “Share of BDP-related material in medium” value ([2]; 24 h) was 8.4% and the “Amount of fatty acid esters formed, fold less than for BUD and des-CIC” value ([2]; lung tissue, esters formed by BMP (and/or BOH)) was “approximately 10 fold”. The “Median concentration in bronchial tissue” value [5, 7] was 4.4 ng/g tissue and the “Median concentration in serum” value [5, 7] was 1.2 ng/mL.
In the case of `CCCCCCCCC=CCCCCCCCC(=O)OCC(=O)C12OC(C3CCCCC3)OC1CC1C3CCC4=CC(=O)C=CC4(C)C3C(O)CC12C` (centres unmarked) [Des-CIC-oleate], the “Lipophilicity relative to BUD-oleate” value ([4]; from logD 13.0 vs 12.3) is listed as “about 5 fold”.
